Data on 19 compounds can be found in US9458181B2, “Cathepsin cysteine protease inhibitors” (Merck Sharp & Dohme Corp., priority 2013, dated 2016).

One experiment addresses T1, human cathepsin F (Homo sapiens, UniProt Q9UBX1).
T1 sequence (Q9UBX1 271-484): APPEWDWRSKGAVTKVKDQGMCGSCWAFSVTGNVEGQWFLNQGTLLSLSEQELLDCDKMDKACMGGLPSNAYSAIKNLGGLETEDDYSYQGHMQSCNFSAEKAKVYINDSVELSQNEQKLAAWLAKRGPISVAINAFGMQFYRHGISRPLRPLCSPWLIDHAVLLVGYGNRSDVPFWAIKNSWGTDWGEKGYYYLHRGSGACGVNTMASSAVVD
The experiment can be described thus: Cathepsin F assay (hCat F). Format: biochemical. The conditions noted are these: human cathepsin F 10 nM, Z-Phe-Arg-AMC 8 μM, pH 5.5, 15 min preincubation; read-out: hCat F IP. Summed up: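 Human cathepsin F (10 nM) in 50 mM MES pH 5.5, 2.5 mM EDTA, 2.5 mM DTT, 10% DMSO was preincubated 15 min at RT with compounds from a ⅓ DMSO dilution series (500–0.025 μM stocks). Z-Phe-Arg-AMC was added (8 μM as added), and AMC release was read by fluorescence (360/460 nm) for 20 min. Percent inhibition was fitted to a dose-response model.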

For a further experiment, the target named is human cathepsin K (UniProt P43236). The experiment can be described thus: Cathepsin K Assay (hrbCat K). Format: biochemical. To be noted: human cathepsin K 0.4 nM, Z-Leu-Arg-AMC 8 μM, pH 5.5, 15 min preincubation; read-out: hrbCat K IP. Summed up:
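Human cathepsin K (0.4 nM) in pH 5.5 MES buffer with EDTA, DTT and 10% DMSO was preincubated 15 min at room temperature with compound from a ⅓ dilution series (500-0.025 μM DMSO stocks). Z-Leu-Arg-AMC (8 μM) was then added, and AMC release was followed fluorometrically (Ex 360/Em 460 nm) for 30 min; inhibition was fitted to a dose-response model.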

Structures are written as SMILES. Bounds are passed on as bounds.

Turning to `N#CC1(NC(=O)[C@@H]2CCCC[C@H]2c2oc(-c3cccc(OC(F)F)c3)nc2-c2ccc(N3CCS(=O)(=O)CC3)cc2)CC1` [Example 68, (1R,2R)-N-(1-cyanocyclopropyl)-2-(2-(3-(difluoromethoxy)phenyl)-4-(4-(1,1-dioxidothiomorpholino)phenyl)oxazol-5-yl)cyclohexanecarboxamide], the figures for the IC50 at human cathepsin F and at human cathepsin K were 502 nM and 1.04 nM, respectively.
In the case of `CC(C)[C@@H](C#N)NC(=O)[C@@H]1CC(F)(F)CC[C@H]1c1oc(C(F)(F)C(F)(F)F)nc1-c1ccc(C(=O)N2CCOCC2)cc1` [Example 148, (1R,2R)-N-((S)-1-cyano-2-methylpropyl)-5,5-difluoro-2-(4-(4-(morpholine-4-carbonyl)phenyl)-2-(perfluoroethyl)oxazol-5-yl)cyclohexanecarboxamide], the IC50 at human cathepsin F was determined as 280 nM; at human cathepsin K it was 1.03 nM.
For `CN(C(=O)OC(C)(C)C)c1ccc(-c2nc(-c3ccc(F)cc3)oc2[C@@H]2CCCC[C@H]2C(=O)NC2(C#N)CC2)cc1` [Example 48, tert-butyl (4-(5-((1R,2R)-2-((1-cyanocyclopropyl)carbamoyl)cyclohexyl)-2-(4-fluorophenyl)oxazol-4-yl)phenyl)(methyl)carbamate], the results for the IC50 at human cathepsin F and on human cathepsin K were 176 nM and 7.4 nM, respectively.
As for `CC1(C)C(c2nc(-c3ccc(N4CCS(=O)(=O)CC4)cc3)c([C@@H]3CCCC[C@H]3C(=O)NC3(C#N)CC3)o2)C1(C)C` [Example 113, (1R,2R)-N-(1-cyanocyclopropyl)-2-(4-(4-(1,1-dioxidothiomorpholino)phenyl)-2-(2,2,3,3-tetramethylcyclopropyl)oxazol-5-yl)cyclohexanecarboxamide], the IC50 was determined as 2450 nM at human cathepsin F and 4.21 nM at human cathepsin K.
For `CS(=O)(=O)C1CN(c2ccc(-c3nc(C(F)(F)F)oc3[C@@H]3CCCC[C@H]3C(=O)NC3(C#N)CC3)cc2)C1` [Example 25] the same measures were 447 nM and 0.66 nM.
For the compound `CC(C)(C)c1nc(-c2ccc(N3CCS(=O)(=O)CC3)cc2)c([C@@H]2CCC(F)(F)C[C@H]2C(=O)NC2(C#N)CC2)o1` [Example 19, (1R,2R)-2-(2-(tert-butyl)-4-(4-(1,1-dioxidothiomorpholino)phenyl)oxazol-5-yl)-N-(1-cyanocyclopropyl)-5,5-difluorocyclohexane-carboxamide], the IC50 came out at 81 nM at human cathepsin F and 0.54 nM on human cathepsin K.
`N#CC1(NC(=O)[C@@H]2CCCC[C@H]2c2oc(-c3ccccc3C3CC3)nc2-c2ccc(N3CCS(=O)(=O)CC3)cc2)CC1` [Example 79, (1R,2R)-N-(1-cyanocyclopropyl)-2-(2-(2-cyclopropylphenyl)-4-(4-(1,1-dioxidothiomorpholino)phenyl)oxazol-5-yl)cyclohexanecarboxamide]: the figures for the IC50 at human cathepsin F and at human cathepsin K were 124 nM and 0.51 nM, respectively.
For `N#CC1(NC(=O)[C@@H]2CCCC[C@H]2c2oc(-c3cncc(C(F)(F)F)c3)nc2-c2ccc(N3CCS(=O)(=O)CC3)cc2)CC1` [Example 88, (1R,2R)-N-(1-cyanocyclopropyl)-2-(4-(4-(1,1-dioxidothiomorpholino)phenyl)-2-(5-(trifluoromethyl)pyridin-3-yl)oxazol-5-yl)cyclohexanecarboxamide] the same measures were 2380 nM and 2.21 nM.
Take `N#CC1(NC(=O)[C@@H]2CCCC[C@H]2c2oc(-c3cccc(C4CC4)c3)nc2-c2ccc(N3CCS(=O)(=O)CC3)cc2)CC1` [Example 77, (1R,2R)-N-(1-cyanocyclopropyl)-2-(2-(3-cyclopropylphenyl)-4-(4-(1,1-dioxidothiomorpholino)phenyl)oxazol-5-yl)cyclohexanecarboxamide]: the values for the IC50 on human cathepsin F and at human cathepsin K were 533 nM and 0.65 nM, respectively.
Take `N#Cc1ccc(-c2nc(-c3ccc(N4CCS(=O)(=O)CC4)cc3)c([C@@H]3CCCC[C@H]3C(=O)NC3(C#N)CC3)o2)cc1` [Example 74, (1R,2R)-N-(1-cyanocyclopropyl)-2-(2-(4-cyanophenyl)-4-(4-(1,1-dioxidothiomorpholino)phenyl)oxazol-5-yl)cyclohexanecarboxamide]: the IC50 at human cathepsin F was determined as 645 nM; at human cathepsin K, 1.46 nM.
As for `CS(=O)(=O)N1CCN(C(=O)c2ccc(-c3nc(-c4ccc(F)cc4F)oc3[C@@H]3CCCC[C@H]3C(=O)NC3(C#N)CC3)cc2)CC1` [Example 129, (1R,2R)-N-(1-cyanocyclopropyl)-2-(2-(2,4-difluorophenyl)-4-(4-(4-(mcthylsulfonyl)piperazine-1-carbonyl)phenyl)oxazol-5-yl)cyclohexanecarboxamide], the IC50 is 3930 nM at human cathepsin F and 9.12 nM on human cathepsin K.
For `N#CC1(NC(=O)[C@@H]2CC(Cl)(Cl)CC[C@H]2c2oc(C(F)(F)C(F)(F)F)nc2-c2ccc(C(=O)N3CCOCC3)cc2)CC1` [Example 154, (1R,2R)-5,5-dichloro-N-(1-cyanocyclopropyl)-2-(4-(4-(morpholine-4-carbonyl)phenyl)-2-(perfluoroethyl)oxazol-5-yl)cyclohexanecarboxamide] the same measures were 259 nM and 0.68 nM.
For `N#CCNC(=O)[C@@H]1CCCC[C@H]1c1oc(-c2ccc(F)cc2)nc1-c1ccc(N2CCS(=O)(=O)CC2)cc1` [Example 112, (1R,2R)-N-(cyanomethyl)-2-(4-(4-(1,1-dioxidothiomorpholino)phenyl)-2-(4-fluorophenyl)oxazol-5-yl)cyclohexanecarboxamide] the same measures were 126 nM and 0.73 nM.
On the same counts, the results for `N#CC1(NC(=O)[C@@H]2CCCC[C@H]2c2oc(-c3cccc(C(F)(F)F)c3)nc2-c2ccc(N3CCS(=O)(=O)CC3)cc2)CC1` [Example 66, (1R,2R)-N-(1-cyanocyclopropyl)-2-(4-(4-(1,1-dioxidothiomorpholino)phenyl)-2-(3-(trifluoromethyl)phenyl)oxazol-5-yl)cyclohexanecarboxamide] are 454 nM and 1.21 nM.
With `N#CC1(NC(=O)[C@@H]2CCCC[C@H]2c2oc(-c3ccc(OC(F)(F)F)cc3)nc2-c2ccc(N3CCS(=O)(=O)CC3)cc2)CC1` [Example 61, (1R,2R)-N-(1-cyanocyclopropyl)-2-(4-(4-(1,1-dioxidothiomorpholino)phenyl)-2-(4-(trifluoromethoxy)phenyl)oxazol-5-yl)cyclohexanecarboxamide], the IC50 was determined as 511 nM at human cathepsin F and 1.36 nM at human cathepsin K.
In the case of `N#CC(NC(=O)[C@@H]1CC(F)(F)CC[C@H]1c1oc(C(F)(F)C(F)(F)F)nc1-c1ccc(C(=O)N2CCOCC2)cc1)C1CCOCC1` (single isomer, unassigned) [Example 144, (1R,2R)-N-((R or S)-cyano(tetrahydro-2H-pyran-4-yl)methyl)-5,5-difluoro-2-(4-(4-(morpholine-4-carbonyl)phenyl)-2-(perfluoroethyl)oxazol-5-yl)cyclohcxanccarboxamide], the IC50 on human cathepsin F was not below 10000 nM; at human cathepsin K, 1520 nM.
Take `N#CC1(NC(=O)[C@@H]2CCCC[C@H]2c2oc(-c3cccc(C(F)(F)F)n3)nc2-c2ccc(N3CCS(=O)(=O)CC3)cc2)CC1` [Example 100, (1R,2R)-N-(1-cyanocyclopropyl)-2-(4-(4-(1,1-dioxidothiomorpholino)phenyl)-2-(6-(trifluoromethyl)pyridin-2-yl)oxazol-5-yl)cyclohexanecarboxamide]: the values for the IC50 on human cathepsin F and at human cathepsin K were 2860 nM and 4.11 nM, respectively.
On the same counts, the results for `N#C[C@@H](NC(=O)[C@@H]1CCCC[C@H]1c1oc(-c2ccc(F)cc2)nc1-c1ccc(N2CCS(=O)(=O)CC2)cc1)C1CCOCC1` [Example 128, (1R,2R)-N-((S)-cyano(tetrahydro-2H-pyran-4-yl)methyl)-2-(4-(4-(1,1-dioxidothiomorpholino)phenyl)-2-(4-fluorophenyl)oxazol-5-yl)cyclohexanecarboxamide] are 692 nM and 1.94 nM.
With `Cc1nc(-c2ccc(C(=O)N3CCOCC3)cc2)c([C@@H]2CCCC[C@H]2C(=O)NC2(C#N)CC2)o1` [Example 22, (1R,2R)-N-(1-cyanocyclopropyl)-2-(2-methyl-4-(4-(morpholine-4-carbonyl)phenyl)oxazol-5-yl)cyclohexanecarboxamide], the IC50 on human cathepsin F turned out to be 6160 nM; on human cathepsin K, 5.09 nM.
